“And” between values parts separate entries of the source, which are not always exact repeats. Identical values can stand only once. Like-named read-outs stand apart in the source and are kept apart here.
How the values were obtained:
[1] = molecular target: DRD2 (D2 long receptor) wild-type (Homo sapiens, UniProt P14416); experiment: Radioligand competition binding, [3H]-N-methylspiperone, HEK293T membranes; details: for Ki: DRD2, [3H]-methylspiperone (0.8-1.0 nM), read-out: Ki
DRD3 wild-type = DRD3 wild-type (Homo sapiens, UniProt P35462); experiment: Radioligand competition binding, [3H]-N-methylspiperone; details: for Ki: DRD3, [3H]-methylspiperone (0.8-1.0 nM), read-out: Ki; for pKi ± SEM: DRD3 wild-type
[2] = molecular target: T1, DRD4 (D4.4 variant) wild-type (Homo sapiens, UniProt P21917); experiment: as above; details: DRD4; [3H]-methylspiperone (0.8-1.0 nM); read-out: Ki
T1 sequence (P21917 1-419): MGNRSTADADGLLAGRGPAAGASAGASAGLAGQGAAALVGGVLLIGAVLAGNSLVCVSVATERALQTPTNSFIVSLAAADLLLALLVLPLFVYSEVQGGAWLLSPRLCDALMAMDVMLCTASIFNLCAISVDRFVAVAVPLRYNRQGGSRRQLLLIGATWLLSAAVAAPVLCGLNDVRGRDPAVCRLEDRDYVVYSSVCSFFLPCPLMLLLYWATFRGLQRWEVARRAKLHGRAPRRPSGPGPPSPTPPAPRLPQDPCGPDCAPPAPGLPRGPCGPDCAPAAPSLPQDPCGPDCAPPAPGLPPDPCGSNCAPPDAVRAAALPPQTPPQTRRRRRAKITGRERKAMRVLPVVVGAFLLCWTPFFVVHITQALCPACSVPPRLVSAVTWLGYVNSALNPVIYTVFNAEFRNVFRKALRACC

DRD3 F1063.28A [3] = molecular target: T2, DRD3 F1063.28A (Homo sapiens, UniProt P35462, F106A); experiment: biochemical; type: binding; details: for Ki: read-out: Ki
DRD2 (D2 long receptor) [4] = molecular target: T3, DRD2 (D2 long receptor) (Homo sapiens, UniProt P14416); experiment: Gαi/o-mediated cAMP inhibition (GloSensor split-luciferase cAMP reporter), HEK293T; type: cell-based; details: for EC50: agonist, Gαi/o-mediated cAMP inhibition, read-out: EC50 ± SEM; for response, Fig_S11d dose-response source data: replicate values;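 for all read-outs here: compounds applied 15 min at room temperature, then luciferin plus 400 nM isoproterenol to raise cAMP through endogenous β2-adrenergic receptors, luminescence read 15 min later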
DRD4 (D4.4 variant) [5] = molecular target: T4, DRD4 (D4.4 variant) (Homo sapiens, UniProt P21917); experiment: Gαi/o-mediated cAMP inhibition (GloSensor); type: cell-based; details: DRD4; agonist, cAMP inhibition; read-out: EC50 ± SEM
T4 sequence (P21917 1-419): T1 sequence (P21917 1-419)

DRD2 F1103.28L [6] = molecular target: T5, DRD2 F1103.28L (Homo sapiens, UniProt P14416, F110L); experiment: Gαi/o-mediated cAMP inhibition (GloSensor), mutant; type: cell-based; details: DRD2 F1103.28L (b138 head prints DRD2 F1063.28L)
T5 construct: expressed in transfected cells; host or cells: HEK293T (ATCC CRL-11268)

DRD2 (D2 long receptor) [7] = molecular target: T3, DRD2 (D2 long receptor); experiment: β-arrestin2 recruitment (Tango), HTLA cells; type: cell-based; details: for Emax relative to quinpirole response / EC50: DRD2; for Emax relative to quinpirole response: Tango; for EC50: β-arrestin2 recruitment (Tango), read-out: EC50 ± SEM
DRD3 = DRD3 (Homo sapiens, UniProt P35462); experiment: β-arrestin2 recruitment (Tango); type: cell-based; details: DRD3; Tango; read-out: EC50 ± SEM
DRD4 (D4.4 variant) [8] = molecular target: T4, DRD4 (D4.4 variant); experiment: β-arrestin2 recruitment (Tango); type: cell-based; details: DRD4; Tango; read-out: EC50 ± SEM
DRD2 F1103.28L [9] = molecular target: T5, DRD2 F1103.28L; experiment: β-arrestin2 recruitment (Tango), mutant; type: cell-based
DRD3 F1063.28A [10] = molecular target: T2, DRD3 F1063.28A; experiment: cell-based; type: cell-based; details: DRD3 F1063.28A; Tango; read-out: EC50 ± SEM
DRD2 F1103.28A [11] = molecular target: T6, DRD2 F1103.28A (Homo sapiens, UniProt P14416, F110A); type: binding; parameters: expressed in transfected cells; host or cells: HEK293T (ATCC CRL-11268); details: for Ki: read-out: Ki
DRD2 F1103.28A [12] = molecular target: T6, DRD2 F1103.28A; experiment: Gαi/o-mediated cAMP inhibition (GloSensor), mutant; type: cell-based; parameters: expressed in transfected cells; host or cells: HEK293T (ATCC CRL-11268)
DRD2 F1103.28A [13] = molecular target: T6, DRD2 F1103.28A; experiment: β-arrestin2 recruitment (Tango), mutant; type: cell-based; parameters: expressed in transfected cells; host or cells: HEK293T (ATCC CRL-11268)

T6 sequence (P14416 whole entry F110A): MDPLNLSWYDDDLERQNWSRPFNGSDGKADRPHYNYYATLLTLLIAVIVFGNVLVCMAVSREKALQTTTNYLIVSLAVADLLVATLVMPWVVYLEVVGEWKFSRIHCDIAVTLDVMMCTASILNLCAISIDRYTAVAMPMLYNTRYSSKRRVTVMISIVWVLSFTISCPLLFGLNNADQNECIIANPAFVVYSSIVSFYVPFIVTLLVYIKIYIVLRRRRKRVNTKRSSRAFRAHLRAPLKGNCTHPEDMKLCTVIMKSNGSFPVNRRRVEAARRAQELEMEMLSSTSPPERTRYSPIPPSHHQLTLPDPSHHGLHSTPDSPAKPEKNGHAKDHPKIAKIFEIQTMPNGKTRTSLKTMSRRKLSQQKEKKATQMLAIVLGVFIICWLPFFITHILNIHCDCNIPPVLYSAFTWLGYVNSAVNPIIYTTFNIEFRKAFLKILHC
Sequence of DRD3 wild-type (P35462 whole entry): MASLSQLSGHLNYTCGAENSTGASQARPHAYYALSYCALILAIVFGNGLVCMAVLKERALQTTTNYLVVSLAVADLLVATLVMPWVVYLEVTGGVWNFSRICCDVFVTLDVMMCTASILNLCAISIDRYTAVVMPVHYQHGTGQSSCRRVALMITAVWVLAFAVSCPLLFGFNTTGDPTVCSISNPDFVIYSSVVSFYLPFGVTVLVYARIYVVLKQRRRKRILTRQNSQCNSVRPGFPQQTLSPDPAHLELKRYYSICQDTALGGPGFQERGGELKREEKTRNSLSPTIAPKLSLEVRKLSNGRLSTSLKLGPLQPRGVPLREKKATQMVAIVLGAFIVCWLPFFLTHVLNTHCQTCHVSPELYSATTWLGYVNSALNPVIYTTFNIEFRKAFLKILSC
T5 sequence (P14416 whole entry F110L): as the sequence (P14416 whole entry F110A) above, with A110L counted along it
Sequence of DRD2 (D2 long receptor) wild-type (P14416 whole entry): as the sequence (P14416 whole entry F110A) above, with A110F counted along it
T3 sequence (P14416 whole entry): as the sequence (P14416 whole entry F110A) above, with A110F counted along it
T2 sequence (P35462 whole entry F106A): as the sequence (P35462 whole entry) above, with F106A counted along it
Sequence of DRD3 (P35462 whole entry): as the sequence (P35462 whole entry) above

## CCOc1cccc2cc(C(C)NCC3(O)CC3)oc12.Cl (racemic) [O4LE3]
[1]
  Ki: > 10 µM
DRD3 wild-type
  Ki: 4.37 µM
  pKi ± SEM: 5.36±0.31
[2]
  Ki: > 10 µM
DRD3 F1063.28A [3]; DRD3 F1063.28A
  Ki: > 10 µM
DRD2 (D2 long receptor) [4]; DRD2
  EC50: > 10 µM
DRD4 (D4.4 variant) [5]
  EC50: > 10 µM
DRD2 F1103.28L [6]
  EC50: > 10 µM
DRD2 (D2 long receptor) [7]
  Emax relative to quinpirole response: 9.29%
  EC50: 8.85 ± 2.62 µM
DRD3
  EC50: > 10 µM
DRD4 (D4.4 variant) [8]
  EC50: > 10 µM
DRD2 F1103.28L [9]
  EC50: > 10 µM
DRD3 F1063.28A [10]
  EC50: > 10 µM
DRD2 F1103.28A [11]; DRD2 F1103.28A
  Ki: > 10 µM
DRD2 F1103.28A [12]
  EC50: > 10000 nM
DRD2 F1103.28A [13]
  EC50: > 10 µM

## CCOc1cccc2cc(C(C)NCC3(O)CCCC3)oc12.Cl (racemic) [O4LE5]
[1]
  Ki: 9.55 µM
[1]; DRD2 wild-type
  pKi ± SEM: 5.02±0.07
DRD3 wild-type
  Ki: 1.02 µM
  pKi ± SEM: 5.99±0.02
[2]
  Ki: > 10 µM
DRD3 F1063.28A [3]; DRD3 F1063.28A
  pKi ± SEM: 5.37±0.13
  Ki: 4.27 µM
DRD3 F1063.28A [3]; DRD3 Phe106^3.28Ala vs wild-type DRD3
  affinity decreased, mutant vs wild type: 4.19 fold
DRD2 (D2 long receptor) [4]; DRD2
  EC50: 0.0203 ± 0.00906 µM
DRD2 (D2 long receptor) [4]; DRD2, cAMP inhibition
  Emax relative to quinpirole response: 90.02%
DRD2 (D2 long receptor) [4]; Log[Drug] -6.52
  response, Fig_S11d dose-response source data: 89.8047
DRD2 (D2 long receptor) [4]; Log[Drug] -7
  response, Fig_S11d dose-response source data: 65.0385 and 57.9248 and 60.2207 and 80.9341 and 74.6312 and 79.279 and 82.9188 and 82.7948 and 77.3857
DRD2 (D2 long receptor) [4]; Log[Drug] -7.52
  response, Fig_S11d dose-response source data: 39.5571 and 33.4973 and 24.3511 and 57.6284 and 63.6471 and 63.1957 and 71.0585 and 72.7209 and 64.8058
DRD2 (D2 long receptor) [4]; Log[Drug] -8
  response, Fig_S11d dose-response source data: 9.5215 and 11.2717 and 13.7182 and 48.383 and 49.6202 and 44.9055 and 35.7008 and 48.9506 and 59.4463
DRD2 (D2 long receptor) [4]; Log[Drug] -8.52
  response, Fig_S11d dose-response source data: -3.6708 and -0.0387 and -1.4878 and 27.1503 and 28.8723 and 39.8732 and 29.7954 and 40.3159 and 28.6789
DRD2 (D2 long receptor) [4]; Log[Drug] -9
  response, Fig_S11d dose-response source data: 6.661 and 7.056 and -0.9609 and 40.0738 and 31.9486 and 25.4952 and 24.1382 and 31.3586 and 28.8029
DRD2 (D2 long receptor) [4]; Log[Drug] -9.52
  response, Fig_S11d dose-response source data: 12.3068 and -0.3586 and -16.1104 and 30.2934 and 20.4294 and 33.0687 and 10.7891 and 20.7389 and 17.29
DRD2 (D2 long receptor) [4]; Log[Drug] -10
  response, Fig_S11d dose-response source data: -16.468 and 1.297 and -13.024 and 16.0491 and 30.494 and 18.4566 and 11.0621 and 15.5283 and 8.9282
DRD2 (D2 long receptor) [4]; Log[Drug] -10.52
  response, Fig_S11d dose-response source data: -14.0967 and 4.779 and -14.8495 and 16.7012 and 24.0741 and 20.5632 and 2.204 and 13.0967 and 9.052
DRD2 (D2 long receptor) [4]; Log[Drug] -11
  response, Fig_S11d dose-response source data: -2.7111 and 12.7961 and -15.5834 and 17.8548 and 27.4178 and 14.9457 and -4.6938 and 9.499 and 12.5508
DRD2 (D2 long receptor) [4]; Log[Drug] -11.52
  response, Fig_S11d dose-response source data: -7.9428 and 7.113 and -8.1498 and 19.6269 and 38.218 and 27.7856 and 20.6149 and 38.3557 and 9.623
DRD2 (D2 long receptor) [4]; Log[Drug] -12
  response, Fig_S11d dose-response source data: -24.8425 and -18.4063 and -14.0215 and 7.974 and -7.6244 and -4.264 and -3.478 and -21.2934 and -10.4999
DRD4 (D4.4 variant) [5]
  EC50: > 10 µM
DRD2 F1103.28L [6]
  EC50: > 10 µM
DRD2 (D2 long receptor) [7]
  response, Fig_S11e dose-response source data: 4.195 and 4.191
  Emax relative to quinpirole response: 69.77%
  EC50: 0.591 ± 0.16 µM
DRD2 (D2 long receptor) [7]; Fig_S11e, Log[Drug] -6.52, replicate values
  response, Fig_S11e dose-response source data: 29.7819
DRD2 (D2 long receptor) [7]; Fig_S11e, Log[Drug] -7, replicate values
  response, Fig_S11e dose-response source data: 14.8195 and 15.4716 and 11.9245 and 14.4902 and 10.6077 and 13.3375 and 15.5705 and 13.1474 and 10.3991
DRD2 (D2 long receptor) [7]; Fig_S11e, Log[Drug] -7.52, replicate values
  response, Fig_S11e dose-response source data: 5.649 and 7.617 and 8.153 and 5.088 and 5.357 and 5.685 and 6.459 and 7.136 and 7.327
DRD2 (D2 long receptor) [7]; Fig_S11e, Log[Drug] -8, replicate values
  response, Fig_S11e dose-response source data: 4.53 and 4.924 and 7.437 and 4.448 and 4.588 and 4.761 and 4.942 and 5.222 and 4.354
DRD2 (D2 long receptor) [7]; Fig_S11e, Log[Drug] -8.52, replicate values
  response, Fig_S11e dose-response source data: 5.418 and 3.578 and 5.097 and 4.558 and 4.204 and 3.944 and 4.259 and 4.448
DRD2 (D2 long receptor) [7]; Fig_S11e, Log[Drug] -9, replicate values
  response, Fig_S11e dose-response source data: 5.551 and 4.294 and 3.766 and 4.187 and 3.973 and 4.022 and 3.996 and 4.409 and 5.115
DRD2 (D2 long receptor) [7]; Fig_S11e, Log[Drug] -9.52, replicate values
  response, Fig_S11e dose-response source data: 3.774 and 3.895 and 3.825 and 3.992 and 4.187 and 3.4742 and 3.994 and 4.11
DRD2 (D2 long receptor) [7]; Fig_S11e, Log[Drug] -10, replicate values
  response, Fig_S11e dose-response source data: 3.543 and 4.048 and 4.417 and 4.083 and 4.005 and 3.8893 and 4.472 and 4.295 and 4.703
DRD2 (D2 long receptor) [7]; Fig_S11e, Log[Drug] -10.52, replicate values
  response, Fig_S11e dose-response source data: 4.321 and 3.611 and 3.873 and 3.908 and 3.996 and 3.919 and 3.699 and 4.48 and 4.116
DRD2 (D2 long receptor) [7]; Fig_S11e, Log[Drug] -11, replicate values
  response, Fig_S11e dose-response source data: 3.51 and 3.391 and 4.782 and 4.294 and 4.024 and 3.997 and 3.756 and 4.401 and 4.222
DRD2 (D2 long receptor) [7]; Fig_S11e, Log[Drug] -11.52, replicate values
  response, Fig_S11e dose-response source data: 3.707 and 4 and 3.724 and 4.053 and 3.84 and 3.862 and 4.291 and 4.0833 and 3.6644
DRD2 (D2 long receptor) [7]; Fig_S11e, Log[Drug] -12, replicate values
  response, Fig_S11e dose-response source data: 4.3048 and 3.879 and 4.62 and 3.975 and 4.688 and 4.168 and 3.647 and 4.316 and 4.328
DRD3
  EC50: > 10 µM
DRD4 (D4.4 variant) [8]
  EC50: > 10 µM
DRD2 F1103.28L [9]
  EC50: > 10 µM
DRD3 F1063.28A [10]
  EC50: > 10 µM
DRD2 F1103.28A [11]; DRD2 F1103.28A
  pKi ± SEM: 6.03±0.14
  Ki: 0.93 µM
DRD2 F1103.28A [11]; DRD2 Phe110^3.28Ala vs wild-type DRD2
  affinity increase (binding enhanced), mutant vs wild type: 10.27 fold
DRD2 F1103.28A [12]
  EC50: 0.05 ± 0.04 nM
  Emax relative to quinpirole response: 13.66%
DRD2 F1103.28A [13]
  EC50: > 10 µM

Reference: publication PMC7044277 (Nature Communications, 2020)
